Source: patent US20260199514A1, “PRODRUG STRATEGY THAT ENHANCES EFFICACY AND LOWERS SYSTEMIC TOXICITY OF MERTANSINE” (priority 2022, published 2026)

Tests used:
NCI-H929 MM Cells = assay: In vitro cytotoxicity assay (CCK-8); assay type: cell-based, human; settings: NCI-H929 cell line
Protocol: Next, we evaluated the efficacy of liposomal DM1-Prodrug formulations against MM cells in vitro. For this, NCI-H929 cells were incubated with NP[Prodrug], TNP[Prodrug], free DM1-Prodrug or free drug for 24 h, 48 h and 72 h, and cell viability was determined using cell counting kit-8 (CCK-8) reagent. […] The differences in the IC50 values between free drug and the nanoparticles is possibly attributed to the release kinetics of active DM1 from nanoparticles.
Cell Culture. NCI-H929 cells were purchased from ATCC (Rockville, MD). Cells were cultured in RPMI 1640 media (Corning, NY). The cell line was supplemented with 20% fetal bovine serum (FBS), 2 mM L-Glutamine (Gibco, CA), 100U/mL penicillin (Gibco, CA), 100 μg/mL streptomycin (Gibco) and 55 μM 2-mercaptoethanol.
Cytotoxicity Assays. 15×10^3 cells/well were plated 24 h prior to each experiment in a 96-well plate. The following day, cells were treated with respective cytotoxic agents at varying concentrations. Cytotoxicity was assessed at 24 h, 48 h and 72 h using Cell Counting Kit-8 Reagent via reading absorbance at 450 nm. Viability was normalized to wells containing untreated cells.

NCI-H929 cells = assay: Apoptosis assay (Annexin-V / PI staining); assay type: cell-based, human; settings: 20 nM equivalence of DM1, 24 h, Annexin-V and PI
Protocol: NCI-H929 cells were incubated with 20 nM equivalence of DM1 concentration either in the form of one of the liposomal prodrug formulations, or the free drug for 24 h.
Apoptosis Assay. NCI-H929 cells were cultured in the presence of 20 nM of DM1 equivalent concentrations of NP[Prodrug], TNP[Prodrug], and free drug for 24 h. Cells were washed and stained using the Dead Cell Apoptosis Kit by following and optimizing the manufacturer's protocol. Briefly, cells were washed with cold PBS, resuspended in 1X binding buffer, followed by Annexin-V and PI staining for 30 min at room temperature. Staining was performed by adding 7 μL of Alexa Fluor® 488 Annexin-V and 8 μL of 100 μg/mL PI working solution to each 100 μL of cell suspensions. Cells in treatment groups and untreated control were stained with Annexin-V and PI. Fluorescent microscopy images were acquired by using an EVOS® FL Auto Imaging System.

[1] = Maximum tolerated dose (MTD) study in healthy mice; assay type: in vivo; settings: healthy NOD-SCID mice
Protocol: When mice were injected with free DM1 at a dose over 0.5 mg/kg twice on days 0 and 3, we observed that all animals lost over 15% of their body weight and were morbid before the end of the week (FIG. 5). […] We concluded that liposomal prodrug formulations made treatment with DM1 possible in comparison to free DM1, where its intense systemic toxicity made it a non-viable treatment option. With this approach of liposomal prodrug formulation, even the non-targeted formulations already achieved an improved therapeutic index for DM1.
Maximum Tolerated Dose (MTD) Study. […] Free drug (DM1) was administered according to the recommendations of the manufacturer. Briefly, Free drug treatments were prepared by dissolving in 10% DMSO and 90% saline containing (20% Hydroxypropyl-β-cyclodextrin as excipient) and then administered intravenously into mice.

COc1cc2cc(c1Cl)N(C)C(=O)C[C@H](OC(=O)[C@H](C)N(C)C(=O)CCS)[C@]1(C)O[C@H]1[C@H](C)[C@@H]1C[C@@](O)(NC(=O)O1)[C@H](OC)/C=C/C=C(\C)C2 [free DM1, Mertansine]
IC50 (NCI-H929 MM Cells; 24 hours): 12 nM | IC50 (NCI-H929 MM Cells; 72 hours): 9 nM | induction of apoptosis of MM cells (NCI-H929 cells): induce apoptosis | body weight loss ([1]; dose over 0.5 mg/kg twice on days 0 and 3): over 15% | toxicity / side-effects in MTD study ([1]; injections on days 0 and 3, equivalent DM1 doses (nanoparticles up to 4 mg/kg)): morbid
